Legend:
Test in all cases: MIC in microtitre plates (Example 10)
Type in all cases: cell-based
Set-up in all cases: unit not given here
Details in all cases: microtitre plate, 48 hours at 37° C., ≦20% growth
[1] = test system: Escherichia coli NCTC 8196 (=EC)
How it was run: (§1)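 DMSO-dissolved compounds tested in 1:2 serial dilution against overnight CASO broth cultures, inoculum adjusted to 1-5×10^6 CFU/ml then diluted 1:100 in CASO. Incubated 48 hours at 37° C; turbidity read at 620 nm. MIC = lowest concentration giving ≦20% growth versus control; duplicates.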

[2] = test system: Pseudomonas aeruginosa CIP A-22 (=PA)
How it was run: as §1

[3] = test system: Staphylococcus aureus ATCC 9144 (=SA)
How it was run: as §1

[4] = test system: Candida albicans ATCC 10231 (=CA)
How it was run: as §1

Row | MIC EC [1] | MIC PA [2] | MIC SA [3] | MIC CA [4] | Compound
1 | >120 | >120 | 15 | 120 | CCCCC(CC)CNc1cc(C)nc(-c2ccc(C)c(F)c2)n1 (centres unmarked) [compound 140]
2 | >120 | >120 | >120 | 120 | Cc1cc(NC(C)CC(C)C)nc(C2CC2)n1 (centres unmarked) [compound 145]
3 | >120 | >120 | 60 | 120 | Cc1cc(NC(C)CC(C)C)nc(-c2csc(C)n2)n1 (centres unmarked) [compound 147]

Further lines, the compound ahead of its results:

Row | Compound | MIC EC [1] | MIC PA [2] | MIC SA [3] | MIC CA [4]
4 | CCCCC(CC)CNc1cc(C)nc(C(C)C)n1 (centres unmarked) [compound 138] | 60 | >120 | 30 | 30
5 | CCCCC(CC)CNc1cc(C)nc(-c2csc(C)n2)n1 (centres unmarked) [compound 139] | 60 | >120 | 7.5 | 30
6 | Cc1cc(NC(C)CC(C)C)nc(-c2ccccc2)n1 (centres unmarked) [compound 141] | >120 | >120 | 120 | >120
7 | Cc1cc(NC(C)CC(C)C)nc(-c2ccncc2)n1 (centres unmarked) [compound 142] | >120 | >120 | 30 | 120
8 | Cc1cc(NC(C)CC(C)C)nc(C)n1 (centres unmarked) [compound 143] | >120 | >120 | >120 | 120
9 | Cc1ccc(-c2nc(C)cc(NC(C)CC(C)C)n2)cc1 (centres unmarked) [compound 144] | >120 | >120 | 60 | 120
10 | Cc1cc(NC(C)CC(C)C)nc(C(C)C)n1 (centres unmarked) [compound 146] | >120 | >120 | >120 | 120
11 | Cc1cc(NC(C)CC(C)C)nc(-c2ccc(C)c(F)c2)n1 (centres unmarked) [compound 148] | >120 | >120 | 120 | >120

From patent US7731985B2, “4-aminopyrimidines and their use for the antimicrobial treatment of surfaces” (Ciba Specialty Chemicals Corporation, priority 2002, dated 2010)
